Measured values taken from patent US20240270821A1, “GIP/GLP1/GCG TRI-RECEPTOR AGONISTS AND USES THEREOF” (priority 2023, published 2024).
Starred links: 1 amine or outer side, 2 acyl side, 3 side chain; linkers in the order of their positions; H or OH if unused. Non-standard residues stand in square brackets, D forms with d. Residues, ends and D or L forms follow the SMILES beside them. Groups on a side chain read outwards from the residue. *: point of attachment. C18 diacid = O=C(O)CCCCCCCCCCCCCCCCC(=O)*; αMePhe(2-F) = C[C@](N)(Cc1ccccc1F)C(=O)O; γGlu = O=C(O)[C@H](CCC(=O)[*:2])N[*:1]; αMeF = C[C@](N)(Cc1ccccc1)C(=O)O; 4Pal = N[C@@H](Cc1ccncc1)C(=O)O; αMeL = CC(C)C[C@](C)(N)C(=O)O; αMeS = C[C@](N)(CO)C(=O)O; Orn = NCCC[C@H](N)C(=O)O; AEEA = NCCOCCOCC(=O)O; Aib = CC(C)(N)C(=O)O

Assays:
Type in all cases: cell-based
hGcgR = hGcgR (Homo sapiens, UniProt P47871); assay: Functional cAMP activation in the presence of 0.1% casein (no HSA); details: read-out: Relative cAMP EC50, hGcgR;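 further: intracellular cAMP rise after 30 min at 37 °C, read by HTRF against a cAMP standard curve, scaled from buffer only (0%) to maximal control ligand response (100%)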
human GcgR = human GcgR (Homo sapiens, UniProt P47871); assay: Functional cAMP activity in the presence of 1% HSA; details: read-out: cAMP Rel EC50, hGcgR
hGLP-1R [1] = biological target: T1, hGLP-1R (Homo sapiens, UniProt P43220); assay: Functional cAMP activation in the presence of 0.1% casein (no HSA); details: read-out: Relative cAMP EC50, hGLP-1R;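 further: intracellular cAMP rise after 30 min at 37 °C read by HTRF, normalized between buffer only (0%) and maximal control ligand (100%), four-parameter variable-slope fit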
hGIPR [2] = biological target: T2, hGIPR (Homo sapiens, UniProt P48546); assay: Functional cAMP activity in the presence of 1% HSA; details: read-out: cAMP Rel EC50, hGIPR
T2 sequence (P48546 22-466): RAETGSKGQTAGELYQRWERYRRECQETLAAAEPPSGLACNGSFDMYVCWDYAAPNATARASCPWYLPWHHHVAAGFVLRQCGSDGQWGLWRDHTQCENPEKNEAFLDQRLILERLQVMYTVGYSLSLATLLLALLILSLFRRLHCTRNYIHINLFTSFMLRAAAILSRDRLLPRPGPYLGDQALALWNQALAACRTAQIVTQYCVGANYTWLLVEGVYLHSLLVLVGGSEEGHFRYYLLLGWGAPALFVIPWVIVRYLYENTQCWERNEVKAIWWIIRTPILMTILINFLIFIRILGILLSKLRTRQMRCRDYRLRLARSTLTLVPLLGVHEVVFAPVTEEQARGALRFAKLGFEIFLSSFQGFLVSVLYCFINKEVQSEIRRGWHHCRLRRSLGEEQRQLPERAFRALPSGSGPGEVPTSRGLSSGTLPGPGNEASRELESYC

hGLP-1R [3] = biological target: T1, hGLP-1R; assay: Functional cAMP activity in the presence of 1% HSA; details: read-out: cAMP Rel EC50, hGLP-1R
hGIPR [4] = biological target: T2, hGIPR; assay: Functional cAMP activation in the presence of 0.1% casein (no HSA); details: read-out: Relative cAMP EC50, hGIPR;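 further: intracellular cAMP rise after 30 min at 37 °C read by HTRF against a standard curve, scaled between buffer alone (0%) and top control ligand concentration (100%), four-parameter fit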

T1 sequence (P43220 24-463): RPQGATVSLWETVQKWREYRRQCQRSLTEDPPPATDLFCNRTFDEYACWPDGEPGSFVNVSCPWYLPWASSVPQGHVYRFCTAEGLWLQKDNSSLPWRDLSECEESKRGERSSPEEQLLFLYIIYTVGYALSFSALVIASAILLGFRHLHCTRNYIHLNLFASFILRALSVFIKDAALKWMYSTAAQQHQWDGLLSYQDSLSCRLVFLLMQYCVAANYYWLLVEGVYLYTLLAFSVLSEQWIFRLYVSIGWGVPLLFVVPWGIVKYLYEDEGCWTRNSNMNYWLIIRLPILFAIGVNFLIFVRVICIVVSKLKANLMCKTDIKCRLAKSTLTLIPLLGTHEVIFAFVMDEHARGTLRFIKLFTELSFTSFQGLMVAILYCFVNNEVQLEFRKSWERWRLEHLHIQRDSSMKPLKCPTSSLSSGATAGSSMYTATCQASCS
hGcgR, sequence (P47871 26-477): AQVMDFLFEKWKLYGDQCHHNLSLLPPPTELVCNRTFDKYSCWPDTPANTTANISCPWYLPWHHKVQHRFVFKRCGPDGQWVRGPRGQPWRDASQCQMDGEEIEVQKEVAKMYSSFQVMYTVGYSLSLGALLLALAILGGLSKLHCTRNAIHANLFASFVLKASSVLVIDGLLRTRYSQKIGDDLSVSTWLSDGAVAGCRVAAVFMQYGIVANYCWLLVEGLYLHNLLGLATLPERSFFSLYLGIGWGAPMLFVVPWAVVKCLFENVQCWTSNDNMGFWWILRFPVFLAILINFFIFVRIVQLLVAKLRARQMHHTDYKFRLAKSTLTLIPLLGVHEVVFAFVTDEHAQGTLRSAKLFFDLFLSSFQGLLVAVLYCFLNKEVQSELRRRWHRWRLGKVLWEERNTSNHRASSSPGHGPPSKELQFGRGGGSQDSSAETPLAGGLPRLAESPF
human GcgR, sequence (P47871 26-477): as above

Row | SMILES | EC50 (hGcgR) | EC50 (human GcgR) | EC50 (hGLP-1R [1]) | EC50 (hGIPR [2]) | EC50 (hGLP-1R [3]) | EC50 (hGIPR [4])
1 | CC[C@H](C)[C@H](NC(=O)[C@H](Cc1ccccc1)NC(=O)[C@H](C)NC(=O)C(C)(C)NC(=O)[C@H](CCC(N)=O)NC(=O)[C@H](C)NC(=O)[C@H](CCCCNC(=O)COCCOCCNC(=O)COCCOCCNC(=O)CC[C@H](NC(=O)CCCCCCCCCCCCCCCCC(=O)O)C(=O)O)NC(=O)[C@H](CCCCN)NC(=O)[C@H](CC(=O)O)NC(=O)[C@H](CC(C)C)NC(=O)[C@H](CC(C)C)NC(=O)[C@@H](NC(=O)[C@H](CO)NC(=O)[C@H](Cc1ccncc1)NC(=O)[C@H](CC(=O)O)NC(=O)[C@H](CO)NC(=O)[C@@H](NC(=O)[C@](C)(Cc1ccccc1)NC(=O)[C@@H](NC(=O)CNC(=O)[C@H](CCC(N)=O)NC(=O)C(C)(C)NC(=O)[C@@H](N)Cc1ccc(O)cc1)[C@@H](C)O)[C@@H](C)O)[C@@H](C)CC)C(=O)N[C@@H](CCC(=O)O)C(=O)N[C@@H](Cc1ccc(O)cc1)C(=O)N[C@@H](CC(C)C)C(=O)N[C@@H](CC(C)C)C(=O)N[C@@H](CCC(=O)O)C(=O)NCC(=O)NCC(=O)N1CCC[C@H]1C(=O)N[C@@H](CO)C(=O)N[C@@H](CO)C(=O)NCC(=O)N[C@@H](C)C(=O)N1CCC[C@H]1C(=O)N1CCC[C@H]1C(=O)N1CCC[C@H]1C(=O)N[C@@H](CO)C(N)=O [Example 418] (H-Y[Aib]QGT[αMeF]TSD[4Pal]SILLDKK([AEEA-AEEA-γGlu-C18 diacid])AQ[Aib]AFIEYLLEGGPSSGAPPPS-NH2; N-terminus assumed) | 4.7 nM | 627 nM | 0.264 nM | 6.02 nM | 36.6 nM | 0.0153 nM
2 | CC[C@H](C)[C@H](NC(=O)[C@H](CO)NC(=O)[C@H](Cc1ccc(O)cc1)NC(=O)[C@H](CC(=O)O)NC(=O)[C@H](CO)NC(=O)[C@@H](NC(=O)[C@](C)(Cc1ccccc1)NC(=O)[C@@H](NC(=O)CNC(=O)[C@H](CCC(N)=O)NC(=O)C(C)(C)NC(=O)[C@@H](N)Cc1ccc(O)cc1)[C@@H](C)O)[C@@H](C)O)C(=O)N[C@@H](CC(C)C)C(=O)N[C@@H](CC(C)C)C(=O)N[C@@H](CC(=O)O)C(=O)N[C@@H](CCCCN)C(=O)N[C@@H](CCCCNC(=O)COCCOCCNC(=O)COCCOCCNC(=O)CC[C@H](NC(=O)CCCCCCCCCCCCCCCCC(=O)O)C(=O)O)C(=O)N[C@@H](C)C(=O)N[C@@H](CCC(N)=O)C(=O)NC(C)(C)C(=O)N[C@@H](C)C(=O)N[C@@H](Cc1ccccc1)C(=O)N[C@H](C(=O)N[C@H](CCC(=O)O)C(=O)N[C@@H](Cc1ccc(O)cc1)C(=O)N[C@@H](CC(C)C)C(=O)N[C@@H](CC(C)C)C(=O)N[C@@H](CCC(=O)O)C(=O)NCC(=O)NCC(=O)N1CCC[C@H]1C(=O)N[C@@H](CO)C(=O)N[C@@H](CO)C(=O)NCC(=O)N[C@@H](C)C(=O)N1CCC[C@H]1C(=O)N1CCC[C@H]1C(=O)N1CCC[C@H]1C(=O)N[C@@H](CO)C(N)=O)[C@@H](C)CC [Example 419] | 8.52 nM | 1650 nM | 0.615 nM | 9.47 nM | 65.5 nM | 0.0235 nM
3 | CC[C@H](C)[C@H](NC(=O)[C@H](Cc1ccccc1)NC(=O)[C@H](C)NC(=O)C(C)(C)NC(=O)[C@H](CCC(N)=O)NC(=O)[C@H](C)NC(=O)[C@H](CCCCNC(=O)COCCOCCNC(=O)CC[C@H](NC(=O)CCCCCCCCCCCCCCCCC(=O)O)C(=O)O)NC(=O)[C@H](CCCN)NC(=O)[C@H](CC(=O)O)NC(=O)[C@H](CC(C)C)NC(=O)[C@](C)(CC(C)C)NC(=O)[C@@H](NC(=O)[C@](C)(CO)NC(=O)[C@H](Cc1ccc(O)cc1)NC(=O)[C@H](CC(=O)O)NC(=O)[C@H](CO)NC(=O)[C@@H](NC(=O)[C@](C)(Cc1ccccc1)NC(=O)[C@@H](NC(=O)CNC(=O)[C@H](CCC(N)=O)NC(=O)C(C)(C)NC(=O)[C@@H](N)Cc1ccc(O)cc1)[C@@H](C)O)[C@@H](C)O)[C@@H](C)CC)C(=O)N[C@H](CCC(=O)O)C(=O)N[C@@H](Cc1ccc(O)cc1)C(=O)N[C@@H](CC(C)C)C(=O)N[C@@H](CC(C)C)C(=O)N[C@@H](CCC(=O)O)C(=O)NCC(=O)NCC(=O)N1CCC[C@H]1C(=O)N[C@@H](CO)C(=O)N[C@@H](CO)C(=O)NCC(=O)N[C@@H](CCC(=O)O)C(=O)N1CCC[C@H]1C(=O)N1CCC[C@H]1C(=O)N1CCC[C@H]1C(=O)N[C@@H](CCC(=O)O)C(N)=O [Example 420] (H-Y[Aib]QGT[αMeF]TSDY[αMeS]I[αMeL]LD[Orn]K([AEEA-γGlu-C18 diacid])AQ[Aib]AFI[dE]YLLEGGPSSGEPPPE-NH2) | 2.49 nM | 433 nM | 0.205 nM | 2.61 nM | 31.3 nM | 0.0131 nM
4 | CC[C@H](C)[C@H](NC(=O)[C@H](Cc1ccccc1)NC(=O)[C@H](C)NC(=O)C(C)(C)NC(=O)[C@H](CCC(N)=O)NC(=O)[C@H](C)NC(=O)[C@H](CCCCNC(=O)COCCOCCNC(=O)CC[C@H](NC(=O)CCCCCCCCCCCCCCCCC(=O)O)C(=O)O)NC(=O)[C@H](CCCCN)NC(=O)[C@H](CC(=O)O)NC(=O)[C@H](CC(C)C)NC(=O)[C@](C)(CC(C)C)NC(=O)[C@@H](NC(=O)[C@H](CO)NC(=O)[C@H](Cc1ccc(O)cc1)NC(=O)[C@H](CC(=O)O)NC(=O)[C@H](CO)NC(=O)[C@@H](NC(=O)[C@](C)(Cc1ccccc1F)NC(=O)[C@@H](NC(=O)CNC(=O)[C@H](CCC(N)=O)NC(=O)C(C)(C)NC(=O)[C@@H](N)Cc1ccc(O)cc1)[C@@H](C)O)[C@@H](C)O)[C@@H](C)CC)C(=O)N[C@@H](CCC(=O)O)C(=O)N[C@@H](Cc1ccc(O)cc1)C(=O)N[C@@H](CC(C)C)C(=O)N[C@@H](CCC(=O)O)C(=O)N[C@@H](CCC(=O)O)C(=O)NCC(=O)NCC(=O)N1CCC[C@H]1C(=O)N[C@@H](CO)C(=O)N[C@@H](CO)C(=O)NCC(=O)N[C@@H](C)C(=O)N1CCC[C@H]1C(=O)N1CCC[C@H]1C(=O)N1CCC[C@H]1C(=O)N[C@@H](CO)C(N)=O [Example 421] (H-Y[Aib]QGT[αMePhe(2-F)]TSDYSI[αMeL]LDKK([AEEA-γGlu-C18 diacid])AQ[Aib]AFIEYLEEGGPSSGAPPPS-NH2) | 3.25 nM | 468 nM | 0.21 nM | 2.98 nM | 31.9 nM | 0.0132 nM
5 | CC[C@H](C)[C@H](NC(=O)[C@H](Cc1ccccc1)NC(=O)[C@H](C)NC(=O)C(C)(C)NC(=O)[C@H](CCC(N)=O)NC(=O)[C@H](C)NC(=O)[C@H](CCCCNC(=O)COCCOCCNC(=O)CC[C@H](NC(=O)CCCCCCCCCCCCCCCCC(=O)O)C(=O)O)NC(=O)[C@H](CCCCN)NC(=O)[C@H](CC(=O)O)NC(=O)[C@H](CC(C)C)NC(=O)[C@](C)(CC(C)C)NC(=O)[C@@H](NC(=O)[C@H](CO)NC(=O)[C@H](Cc1ccncc1)NC(=O)[C@H](CC(=O)O)NC(=O)[C@H](CO)NC(=O)[C@@H](NC(=O)[C@](C)(Cc1ccccc1F)NC(=O)[C@@H](NC(=O)CNC(=O)[C@H](CCC(N)=O)NC(=O)C(C)(C)NC(=O)[C@@H](N)Cc1ccc(O)cc1)[C@@H](C)O)[C@@H](C)O)[C@@H](C)CC)C(=O)N[C@@H](CCC(=O)O)C(=O)N[C@@H](Cc1ccc(O)cc1)C(=O)N[C@@H](CC(C)C)C(=O)N[C@@H](CCC(=O)O)C(=O)N[C@@H](CCC(=O)O)C(=O)NCC(=O)NCC(=O)N1CCC[C@H]1C(=O)N[C@@H](CO)C(=O)N[C@@H](CO)C(=O)NCC(=O)N[C@@H](C)C(=O)N1CCC[C@H]1C(=O)N1CCC[C@H]1C(=O)N1CCC[C@H]1C(=O)N[C@@H](CO)C(N)=O [Example 422] (H-Y[Aib]QGT[αMePhe(2-F)]TSD[4Pal]SI[αMeL]LDKK([AEEA-γGlu-C18 diacid])AQ[Aib]AFIEYLEEGGPSSGAPPPS-NH2) | 14.5 nM | 493 nM | 0.252 nM | 4.4 nM | 27.1 nM | 0.0216 nM
6 | CC[C@H](C)[C@H](NC(=O)[C@H](Cc1ccccc1)NC(=O)[C@H](C)NC(=O)C(C)(C)NC(=O)[C@H](CCC(N)=O)NC(=O)[C@H](C)NC(=O)[C@H](CCCCNC(=O)COCCOCCNC(=O)CC[C@H](NC(=O)CCCCCCCCCCCCCCCCC(=O)O)C(=O)O)NC(=O)[C@H](CCCCN)NC(=O)[C@H](CC(=O)O)NC(=O)[C@H](CC(C)C)NC(=O)[C@](C)(CC(C)C)NC(=O)[C@@H](NC(=O)[C@H](CO)NC(=O)[C@H](Cc1ccc(O)cc1)NC(=O)[C@H](CC(=O)O)NC(=O)[C@H](CO)NC(=O)[C@@H](NC(=O)[C@](C)(Cc1ccccc1F)NC(=O)[C@@H](NC(=O)CNC(=O)[C@H](CCC(N)=O)NC(=O)C(C)(C)NC(=O)[C@@H](N)Cc1ccc(O)cc1)[C@@H](C)O)[C@@H](C)O)[C@@H](C)CC)C(=O)N[C@@H](CCC(=O)O)C(=O)N[C@@H](Cc1ccc(O)cc1)C(=O)N[C@@H](CC(C)C)C(=O)N[C@@H](CCC(=O)O)C(=O)N[C@@H](CCC(=O)O)C(=O)NCC(=O)NCC(=O)N1CCC[C@H]1C(=O)N[C@@H](CO)C(=O)N[C@@H](CO)C(=O)NCC(=O)N[C@@H](C)C(=O)N1CCC[C@H]1C(=O)N[C@@H](CCC(=O)O)C(=O)N1CCC[C@H]1C(=O)N[C@@H](CO)C(N)=O [Example 423] (H-Y[Aib]QGT[αMePhe(2-F)]TSDYSI[αMeL]LDKK([AEEA-γGlu-C18 diacid])AQ[Aib]AFIEYLEEGGPSSGAPEPS-NH2) | 1.92 nM | 319 nM | 0.194 nM | 3.07 nM | 28.7 nM | 0.0114 nM
